Assay results taken from ChEMBL document CHEMBL3232931 (J Med Chem, 2014).

Experiments:
Caspase-3 = molecular target: T1, Caspase-3 (Homo sapiens, UniProt P42574); test: Inhibition of human caspase-3 using fluorogenic peptide as substrate
T1 sequence (P42574 whole entry): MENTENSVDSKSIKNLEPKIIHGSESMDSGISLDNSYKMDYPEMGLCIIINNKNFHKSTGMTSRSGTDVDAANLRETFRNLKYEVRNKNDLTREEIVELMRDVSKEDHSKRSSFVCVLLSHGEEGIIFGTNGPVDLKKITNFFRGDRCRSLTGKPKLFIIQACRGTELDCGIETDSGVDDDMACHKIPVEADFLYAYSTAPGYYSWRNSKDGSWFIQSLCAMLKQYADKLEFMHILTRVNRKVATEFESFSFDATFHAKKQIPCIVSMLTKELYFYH

[1] = molecular target: T2, Ubiquitin carboxyl-terminal hydrolase 2 (Homo sapiens, UniProt O75604); test: Inhibition of human USP2 using Ub-rhodamine 110 as substrate
T2 sequence (O75604 whole entry): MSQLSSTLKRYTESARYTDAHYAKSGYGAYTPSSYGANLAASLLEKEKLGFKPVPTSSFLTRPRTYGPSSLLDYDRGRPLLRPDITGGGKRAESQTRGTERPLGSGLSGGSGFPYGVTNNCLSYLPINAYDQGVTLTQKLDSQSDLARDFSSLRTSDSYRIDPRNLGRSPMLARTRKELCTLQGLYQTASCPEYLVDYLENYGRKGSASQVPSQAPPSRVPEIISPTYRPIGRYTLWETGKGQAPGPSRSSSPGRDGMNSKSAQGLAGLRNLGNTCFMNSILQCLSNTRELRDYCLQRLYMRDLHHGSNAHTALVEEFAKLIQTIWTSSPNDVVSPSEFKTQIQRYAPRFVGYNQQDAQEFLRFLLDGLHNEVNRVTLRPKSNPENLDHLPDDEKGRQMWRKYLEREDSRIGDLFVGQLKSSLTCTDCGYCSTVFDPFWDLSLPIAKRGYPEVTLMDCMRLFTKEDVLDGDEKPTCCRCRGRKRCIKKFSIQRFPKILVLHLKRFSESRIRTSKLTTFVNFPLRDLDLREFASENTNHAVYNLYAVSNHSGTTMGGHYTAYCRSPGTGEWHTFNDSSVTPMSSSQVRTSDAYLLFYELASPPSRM

[2] = molecular target: Ubiquitin carboxyl-terminal hydrolase 7 (Homo sapiens, UniProt Q93009); test: Inhibition of human USP7 using Ub-rhodamine 110 as substrate
[3] = molecular target: T3, Ubiquitin carboxyl-terminal hydrolase 8 (Homo sapiens) (UniProt P40818); test: Inhibition of human USP8 using Ub-rhodamine 110 as substrate at 31 uM
T3 sequence (whole entry): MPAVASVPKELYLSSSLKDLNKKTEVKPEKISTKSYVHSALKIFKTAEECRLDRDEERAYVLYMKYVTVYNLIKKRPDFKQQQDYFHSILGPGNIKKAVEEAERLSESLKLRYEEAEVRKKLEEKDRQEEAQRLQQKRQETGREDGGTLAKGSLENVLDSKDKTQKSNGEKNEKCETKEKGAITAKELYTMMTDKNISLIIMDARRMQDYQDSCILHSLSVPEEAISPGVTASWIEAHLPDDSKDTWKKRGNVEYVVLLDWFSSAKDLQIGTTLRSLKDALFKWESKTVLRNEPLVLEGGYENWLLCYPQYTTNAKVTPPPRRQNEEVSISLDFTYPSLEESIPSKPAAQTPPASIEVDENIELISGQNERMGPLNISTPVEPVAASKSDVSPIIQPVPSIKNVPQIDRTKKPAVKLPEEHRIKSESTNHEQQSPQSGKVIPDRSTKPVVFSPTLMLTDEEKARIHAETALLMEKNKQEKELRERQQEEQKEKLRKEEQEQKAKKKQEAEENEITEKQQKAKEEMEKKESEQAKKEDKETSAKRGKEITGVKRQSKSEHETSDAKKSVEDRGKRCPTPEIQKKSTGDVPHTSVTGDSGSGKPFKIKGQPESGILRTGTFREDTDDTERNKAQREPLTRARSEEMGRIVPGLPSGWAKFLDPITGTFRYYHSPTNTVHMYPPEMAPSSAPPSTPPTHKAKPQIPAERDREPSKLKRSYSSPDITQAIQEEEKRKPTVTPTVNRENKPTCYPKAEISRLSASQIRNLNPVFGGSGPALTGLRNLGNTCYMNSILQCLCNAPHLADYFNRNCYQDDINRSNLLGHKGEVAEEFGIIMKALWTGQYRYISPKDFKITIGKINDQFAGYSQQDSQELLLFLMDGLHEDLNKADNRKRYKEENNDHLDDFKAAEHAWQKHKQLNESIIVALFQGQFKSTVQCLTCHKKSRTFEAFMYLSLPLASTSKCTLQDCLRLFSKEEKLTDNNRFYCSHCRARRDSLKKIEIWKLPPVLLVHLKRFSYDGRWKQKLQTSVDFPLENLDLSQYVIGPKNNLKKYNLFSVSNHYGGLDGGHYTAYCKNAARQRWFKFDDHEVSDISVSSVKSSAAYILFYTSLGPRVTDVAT

[4] = molecular target: Ubiquitin carboxyl-terminal hydrolase isozyme L1 (Homo sapiens) (UniProt P09936); test: Inhibition of human UCHL1 at 31 uM
[5] = molecular target: T4, Sentrin-specific protease 8 (Homo sapiens, UniProt Q96LD8); test: Inhibition of human DEN1 using Nedd8-EKL as substrate
T4 sequence (Q96LD8 whole entry): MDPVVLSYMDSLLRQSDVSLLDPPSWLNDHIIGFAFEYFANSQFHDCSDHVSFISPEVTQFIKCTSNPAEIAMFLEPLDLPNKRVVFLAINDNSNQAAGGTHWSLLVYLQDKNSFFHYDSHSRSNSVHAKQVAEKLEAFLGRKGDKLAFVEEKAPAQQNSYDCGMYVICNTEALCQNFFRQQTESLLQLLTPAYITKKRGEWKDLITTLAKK

[6] = molecular target: T5, Ubiquitin carboxyl-terminal hydrolase 8 (Homo sapiens, UniProt P40818); test: Inhibition of human USP8 using Ub-rhodamine 110 as substrate
T5 sequence (P40818 whole entry): T3 sequence (whole entry)

[7] = Metabolic stability in mouse liver microsomes assessed as parent compound remaining at 1 uM after 15 mins; type: ADME; conditions: read-out: Stability
[8] = molecular target: Ubiquitin carboxyl-terminal hydrolase 20 (Homo sapiens, UniProt Q9Y2K6); test: Inhibition of human USP20 using Ub-rhodamine 110 as substrate
Caspase-3 (Homo sapiens) = molecular target: T6, Caspase-3 (Homo sapiens) (UniProt P42574); test: Inhibition of human caspase-3 using fluorogenic peptide as substrate at 31 uM
T6 sequence (whole entry): T1 sequence (P42574 whole entry)

[9] = molecular target: Replicase polyprotein 1a (Human coronavirus NL63) (UniProt P0C6U6); test: (§1) Inhibition of human coronavirus NL63 PLP2 (amino acids 1565 to 1894) expressed in Escherichia coli BL21 (DE3) cells assessed as reduction of AMC release using Z-RLRGG-AMC as substrate by multimode plate reader analysis
Replicase polyprotein 1a = Replicase polyprotein 1a (Human coronavirus NL63, UniProt P0C6U6); test: as §1
Liver = test: Half life in mouse liver microsomes at 1 uM; type: ADME
[10] = Therapeutic index, ratio of CC50 for african green monkey Vero E6 cells to EC50 for SARS coronavirus infected in african green monkey Vero E6 cells; type: cell-based; conditions: read-out: Ratio CC50/EC50

Chain of Ubiquitin carboxyl-terminal hydrolase 20 (Q9Y2K6 whole entry): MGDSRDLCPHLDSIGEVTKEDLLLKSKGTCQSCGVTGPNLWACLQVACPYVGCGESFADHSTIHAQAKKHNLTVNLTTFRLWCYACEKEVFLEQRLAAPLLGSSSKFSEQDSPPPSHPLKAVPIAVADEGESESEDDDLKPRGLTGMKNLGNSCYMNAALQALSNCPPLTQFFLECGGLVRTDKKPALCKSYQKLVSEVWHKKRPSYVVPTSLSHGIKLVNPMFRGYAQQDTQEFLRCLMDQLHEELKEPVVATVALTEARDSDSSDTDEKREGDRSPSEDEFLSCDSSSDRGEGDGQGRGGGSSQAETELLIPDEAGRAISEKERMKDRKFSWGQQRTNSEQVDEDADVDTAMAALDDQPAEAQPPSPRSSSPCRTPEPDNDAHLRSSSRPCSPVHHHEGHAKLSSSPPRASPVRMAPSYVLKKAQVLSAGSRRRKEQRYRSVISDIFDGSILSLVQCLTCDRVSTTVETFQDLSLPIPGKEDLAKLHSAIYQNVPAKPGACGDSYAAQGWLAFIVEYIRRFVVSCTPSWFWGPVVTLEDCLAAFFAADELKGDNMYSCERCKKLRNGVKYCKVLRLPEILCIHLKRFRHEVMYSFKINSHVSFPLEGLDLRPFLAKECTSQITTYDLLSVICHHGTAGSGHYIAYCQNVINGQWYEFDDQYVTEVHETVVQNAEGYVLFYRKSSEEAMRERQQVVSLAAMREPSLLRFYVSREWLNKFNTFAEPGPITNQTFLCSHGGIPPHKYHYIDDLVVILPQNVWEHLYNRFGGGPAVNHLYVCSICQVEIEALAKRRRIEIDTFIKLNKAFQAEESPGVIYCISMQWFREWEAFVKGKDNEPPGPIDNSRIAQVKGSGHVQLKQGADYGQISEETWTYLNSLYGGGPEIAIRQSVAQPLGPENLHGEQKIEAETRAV
Chain of Ubiquitin carboxyl-terminal hydrolase isozyme L1 (Homo sapiens) (P09936 whole entry, looked up): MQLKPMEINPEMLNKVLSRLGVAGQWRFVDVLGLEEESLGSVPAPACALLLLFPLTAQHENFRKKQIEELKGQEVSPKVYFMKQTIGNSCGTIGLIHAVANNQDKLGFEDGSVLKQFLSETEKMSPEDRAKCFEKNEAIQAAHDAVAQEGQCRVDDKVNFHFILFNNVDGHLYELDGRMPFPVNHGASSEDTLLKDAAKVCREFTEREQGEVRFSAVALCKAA
Chain of Replicase polyprotein 1a (P0C6U6 899-2462 limits assumed): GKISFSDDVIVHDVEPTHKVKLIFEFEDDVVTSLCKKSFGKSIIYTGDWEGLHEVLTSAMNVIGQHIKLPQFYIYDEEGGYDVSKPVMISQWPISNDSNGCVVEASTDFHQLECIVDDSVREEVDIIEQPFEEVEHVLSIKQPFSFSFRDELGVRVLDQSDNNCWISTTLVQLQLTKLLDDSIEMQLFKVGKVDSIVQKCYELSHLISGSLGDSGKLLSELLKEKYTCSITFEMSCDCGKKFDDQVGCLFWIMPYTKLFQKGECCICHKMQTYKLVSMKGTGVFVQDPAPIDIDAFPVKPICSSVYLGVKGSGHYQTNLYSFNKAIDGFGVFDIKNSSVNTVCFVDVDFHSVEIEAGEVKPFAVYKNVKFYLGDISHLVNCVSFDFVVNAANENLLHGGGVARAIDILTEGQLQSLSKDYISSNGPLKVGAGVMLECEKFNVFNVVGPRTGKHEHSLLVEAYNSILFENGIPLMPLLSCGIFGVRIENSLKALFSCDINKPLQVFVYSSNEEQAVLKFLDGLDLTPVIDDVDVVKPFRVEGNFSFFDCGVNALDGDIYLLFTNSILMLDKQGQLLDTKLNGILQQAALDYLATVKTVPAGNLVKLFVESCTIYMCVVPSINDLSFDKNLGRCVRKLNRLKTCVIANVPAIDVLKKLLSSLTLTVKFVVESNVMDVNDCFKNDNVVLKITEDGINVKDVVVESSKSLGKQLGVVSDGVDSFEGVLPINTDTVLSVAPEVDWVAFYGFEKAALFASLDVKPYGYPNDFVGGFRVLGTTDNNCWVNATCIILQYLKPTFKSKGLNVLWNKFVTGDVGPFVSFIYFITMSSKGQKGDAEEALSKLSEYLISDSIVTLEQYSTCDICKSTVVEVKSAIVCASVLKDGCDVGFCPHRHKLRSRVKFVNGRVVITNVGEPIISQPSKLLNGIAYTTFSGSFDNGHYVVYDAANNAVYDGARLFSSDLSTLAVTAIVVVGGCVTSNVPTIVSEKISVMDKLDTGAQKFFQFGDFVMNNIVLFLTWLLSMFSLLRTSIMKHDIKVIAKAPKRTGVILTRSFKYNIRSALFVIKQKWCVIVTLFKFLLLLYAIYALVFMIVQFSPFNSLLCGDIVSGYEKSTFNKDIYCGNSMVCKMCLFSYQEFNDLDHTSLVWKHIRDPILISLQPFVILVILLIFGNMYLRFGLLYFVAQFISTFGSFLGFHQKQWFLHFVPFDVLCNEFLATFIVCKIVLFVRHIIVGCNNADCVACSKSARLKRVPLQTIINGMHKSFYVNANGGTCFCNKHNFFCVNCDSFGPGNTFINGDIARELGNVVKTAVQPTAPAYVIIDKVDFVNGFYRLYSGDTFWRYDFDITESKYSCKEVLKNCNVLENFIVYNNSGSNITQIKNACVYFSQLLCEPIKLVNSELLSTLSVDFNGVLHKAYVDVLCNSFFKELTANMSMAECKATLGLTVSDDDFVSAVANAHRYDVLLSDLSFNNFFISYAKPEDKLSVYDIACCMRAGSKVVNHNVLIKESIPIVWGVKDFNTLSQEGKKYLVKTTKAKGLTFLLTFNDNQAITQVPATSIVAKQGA
Chain of Replicase polyprotein 1a (Human coronavirus NL63) (P0C6U6 899-2462 limits assumed): as above

Row | SMILES | IC50 (Caspase-3) | IC50 [1] | IC50 [2] | inhibition [3] [%] | inhibition [4] [%] | IC50 [5] | IC50 [6] [µM] | remaining at 0.25 h, 1 µM [7] [%] | IC50 [8] | inhibition (Caspase-3 (Homo sapiens)) [%] | Imax [9] [%] | IC50 (Replicase polyprotein 1a) [µM] | t1/2 (Liver) [min] | IC50 ([1]; read-out: IC50) [µM] | IC50 ([2]; read-out: IC50) [µM] | selectivity ratio [10] | IC50 ([8]; read-out: IC50) [µM]
1 | C[C@H](c1cccc2ccccc12)N1CCC(C(=O)NCc2ccc3c(c2)OCO3)CC1 | Not Active | Not Active | Not Active | 10 | < 10 | Not Active | > 100 | 0.2 | Not Active | < 10 | 46 | 18 | 1.6 | – | – | – | –
2 | CC(=O)Nc1cccc(CNC(=O)C2CCN([C@H](C)c3cccc4ccccc34)CC2)c1 | Not Active | – | – | 10 | < 10 | Not Active | > 100 | 20 | – | < 10 | 71 | 46 | 7 | > 100 | > 100 | > 12 | > 100
3 | C[C@H](c1cccc2ccccc12)N1CCC(C(=O)NCc2ccc(F)cc2)CC1 | Not Active | Not Active | Not Active | 10 | < 10 | Not Active | > 100 | – | – | < 10 | – | – | – | – | – | > 8.6 | > 100
4 | C[C@H](c1cccc2ccccc12)N1CCC(C(=O)NCc2cccc(F)c2)CC1 | Not Active | Not Active | Not Active | 10 | < 10 | Not Active | > 100 | 1.2 | – | < 10 | 57 | 33 | 2.8 | – | – | > 18.5 | > 100
